Where two headings read alike, the source gives them in different places.
Target: T1, SIRT1 (Homo sapiens, UniProt Q96EB6)
T1 sequence (Q96EB6 1-747): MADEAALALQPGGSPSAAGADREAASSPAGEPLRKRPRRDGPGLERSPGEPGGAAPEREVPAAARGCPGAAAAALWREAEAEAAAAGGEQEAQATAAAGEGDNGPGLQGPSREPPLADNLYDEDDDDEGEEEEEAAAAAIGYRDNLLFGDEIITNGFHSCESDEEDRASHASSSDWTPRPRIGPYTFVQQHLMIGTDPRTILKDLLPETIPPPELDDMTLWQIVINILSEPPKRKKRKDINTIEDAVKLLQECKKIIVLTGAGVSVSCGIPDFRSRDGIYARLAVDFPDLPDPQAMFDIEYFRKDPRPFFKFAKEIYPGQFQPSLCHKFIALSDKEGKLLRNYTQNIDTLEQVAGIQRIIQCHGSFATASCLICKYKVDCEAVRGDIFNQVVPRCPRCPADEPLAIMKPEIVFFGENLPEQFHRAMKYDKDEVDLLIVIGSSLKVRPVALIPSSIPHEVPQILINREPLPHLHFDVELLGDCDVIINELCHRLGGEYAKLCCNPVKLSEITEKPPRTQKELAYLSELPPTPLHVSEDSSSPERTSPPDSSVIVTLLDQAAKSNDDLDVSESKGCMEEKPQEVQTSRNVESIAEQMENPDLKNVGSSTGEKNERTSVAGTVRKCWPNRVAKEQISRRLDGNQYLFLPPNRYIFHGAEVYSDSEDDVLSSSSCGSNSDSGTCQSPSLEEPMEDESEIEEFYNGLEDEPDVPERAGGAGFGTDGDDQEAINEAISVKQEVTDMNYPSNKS
Assay: Trp mass spectrometry assay of SIRT1 activity
Format: biochemical
Conditions: for Emax: read-out: Trp % Fold Act; for Trp EC1.5 (μM): concentration giving 150% activation of SIRT1
Summary of the method: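 Activation readout: EC1.5 (concentration raising activity 50% over control) and percent maximum activation, from mass-spec quantitation of OAADPR or deacetylated Trp peptide. Reaction: 0.5 μM acetylated Trp peptide, 120 μM βNAD+, 10 nM bacterially expressed N-His SIRT1, pH 7.5 HEPES buffer with […], 25 min at 25° C.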

[1] = Trp assay, percent maximum fold activation
[2] = percent maximum fold activation of SIRT1, Trp peptide substrate

| Emax [1] [%] | Emax [2] [%] | Trp EC1.5 (μM) (Trp assay) | SMILES |
| --- | --- | --- | --- |
| – | ≥ 350 | – | Cc1nc2ccc(N3CCC[C@H]3C(F)(F)F)nn2c1C(=O)Nc1cccnn1 [Compound 1018] |
| – | ≥ 350 | – | COc1nccc(NC(=O)c2c(C)nn3ccc(N4CCC[C@H]4C(F)(F)F)nc23)n1 [Compound 1049] |
| – | ≥ 350 | – | Cc1cncc(NC(=O)c2c(C)nn3ccc(N4CCC[C@H]4C(F)(F)F)nc23)c1 [Compound 1036] |
| – | ≥ 350 | – | Cc1nn2ccc(N3CCC[C@@H]3C(F)(F)F)nc2c1C(=O)Nc1cccnn1 [Compound 1075] |
| – | ≥ 350 | – | Cc1nc(NC(=O)c2cnn3ccc(N4CCC[C@@H]4C(F)(F)F)nc23)sc1C [Compound 1088] |
| – | ≥ 350 | – | Cc1nn2ccc(N3CCC[C@@H]3C(F)(F)F)nc2c1C(=O)Nc1cnccn1 [Compound 1084] |
| – | < 350 | – | O=C(Nc1ccncn1)c1cnn2ccc(N3CCC[C@@H]3C(F)(F)F)nc12 [Compound 1093] |
| – | < 350 | – | Cc1nc(NC(=O)c2cnn3ccc(N4CCCC4C)nc23)sc1C (stereo not drawn) [Compound 1038] |
| – | ≥ 350 | – | O=C(Nc1cccc(-c2cnco2)n1)c1cnc2ccc(N3CCCC3C(F)(F)F)nn12 (stereo not drawn) [Compound 1099] |
| – | ≥ 350 | – | O=C(Nc1cc(-c2cnco2)ccn1)c1cnc2ccc(N3CCCC3C(F)(F)F)nn12 (stereo not drawn) [Compound 1098] |
| – | ≥ 350 | – | Cc1nc2ccc(N3CCC[C@H]3C(F)(F)F)nn2c1C(=O)Nc1cccnc1 [Compound 1016] |
| – | < 350 | – | C[C@H]1CCCN1c1ccc2ncc(C(=O)Nc3ccncn3)n2n1 [Compound 1057] |
| – | ≥ 350 | – | O=C(Nc1ccccn1)c1cnn2ccc(N3CCCC(C(F)(F)F)C3)nc12 (stereo not drawn) [Compound 1008] |
| – | < 350 | – | C[C@H]1CCCN1c1ccc2ncc(C(=O)Nc3cccnc3)n2n1 [Compound 1056] |
| – | < 350 | – | CC1CCCN1c1ccn2ncc(C(=O)Nc3cnccn3)c2n1 (stereo not drawn) [Compound 1041] |
| – | ≥ 350 | – | Cc1nc2ccc(N3CCC[C@H]3C(F)(F)F)nn2c1C(=O)Nc1ccccn1 [Compound 1015] |
| – | ≥ 350 | – | O=C(Nc1cccnc1)c1cnn2ccc(N3CCC(C(F)(F)F)C3)nc12 (stereo not drawn) [Compound 1012] |
| – | < 350 | – | COc1nccc(NC(=O)c2cnn3ccc(N4CCCC4C)nc23)n1 (stereo not drawn) [Compound 1043] |
| – | ≥ 350 | – | O=C(Nc1ccncn1)c1cnn2ccc(N3CCC(C(F)(F)F)CC3)nc12 [Compound 1063] |
| – | ≥ 350 | – | CC1CCCN1c1ccn2ncc(C(=O)Nc3cccnc3)c2n1 (stereo not drawn) [Compound 1044] |
| – | ≥ 350 | – | O=C(Nc1cc(-c2cnco2)ccn1)c1cnn2ccc(N3CCC[C@@H]3C(F)(F)F)nc12 [Compound 1091] |
| – | ≥ 350 | – | O=C(Nc1cccc2c1COB2O)c1cnc2ccc(N3CCCC3C(F)(F)F)nn12 (stereo not drawn) [Compound 1097] |

More lines, now with the values behind:

| SMILES | Emax [1] [%] | Emax [2] [%] | Trp EC1.5 (μM) (Trp assay) |
| --- | --- | --- | --- |
| CC1CCN(c2ccc3ncc(C(=O)Nc4cncc(F)c4)n3n2)C1 (stereo not drawn) [Compound 979] | ≥ 350 | – | – |
| CN(C)[C@H]1CCN(c2ccc3ncc(C(=O)Nc4cccnn4)n3n2)C1 [Compound 879] | < 350 | – | B (EC1.5 1-25 μM) |
| Cc1nc2ccc(N3CC[C@H](N(C)C)C3)nn2c1C(=O)Nc1cnccn1 [Compound 871] | < 350 | – | B (EC1.5 1-25 μM) |
| O=C(Nc1ccc(F)cn1)c1cnc2ccc(N3CCCC(C(F)(F)F)C3)nn12 (stereo not drawn) [Compound 900] | < 350 | – | A (EC1.5<1 μM) |
| O=C(Nc1cccnc1)c1cnc2ccc(-c3cccc(OC[C@H](O)CO)c3)nn12 [Compound 858] | < 350 | – | B (EC1.5 1-25 μM) |
| Cc1nc2ccc(N3CC[C@H](F)C3)nn2c1C(=O)Nc1cnccn1 [Compound 845] | < 350 | – | B (EC1.5 1-25 μM) |
| CN(C)[C@H]1CCN(c2ccc3ncc(C(=O)Nc4ccncn4)n3n2)C1 [Compound 882] | < 350 | – | B (EC1.5 1-25 μM) |
| O=C(Nc1cccnn1)c1cnc2ccc(-c3cccc(OC[C@H](O)CO)c3)nn12 [Compound 887] | < 350 | – | A (EC1.5<1 μM) |
| O=C(Nc1ccccn1)c1cnc2ccc(N3CCC(F)(F)C3)nn12 [Compound 909] | ≥ 350 | – | B (EC1.5 1-25 μM) |
| CN(C)[C@H]1CCN(c2ccc3ncc(C(=O)Nc4ncccn4)n3n2)C1 [Compound 886] | < 350 | – | B (EC1.5 1-25 μM) |
| O=C(Nc1ccncn1)c1cnc2ccc(N3CCCC3C(F)(F)F)nn12 (stereo not drawn) [Compound 970, N-(pyrimidin-4-yl)-6-(2-(trifluoromethyl)pyrrolidin-1-yl)imidazo[1,2-b]pyridazine-3-carboxamide] | ≥ 350 | – | – |
| Cc1cncc(NC(=O)c2cnc3ccc(N4CC[C@H](F)C4)nn23)c1 [Compound 889] | < 350 | – | B (EC1.5 1-25 μM) |
| C[C@@H]1CN(c2ccc3ncc(C(=O)Nc4cccnn4)n3n2)C[C@H](C)O1 [Compound 996] | ≥ 350 | – | – |
| O=C(Nc1ccncn1)c1cnc2ccc(N3CCCC3)nn12 [Compound 894] | < 350 | – | B (EC1.5 1-25 μM) |
| CC1(C)CCN(c2ccc3ncc(C(=O)Nc4ccncn4)n3n2)C1 [Compound 972] | < 350 | – | – |
| Cc1cc(NC(=O)c2c(C)nc3c(OC[C@H](O)CO)cc(-c4ccccc4C(F)(F)F)nn23)nc(C)n1 [Compound 850] | ≥ 350 | – | A (EC1.5<1 μM) |
| O=C(Nc1cccnn1)c1cnc2ccc(N3CCCC3)nn12 [Compound 895] | < 350 | – | C (EC1.5>25 μM) |
| O=C(Nc1ccccn1)c1cnc2ccc(N3CCCC3C(F)(F)F)nn12 (stereo not drawn) [Compound 974] | ≥ 350 | – | – |
| CO[C@H]1CCN(c2ccc3ncc(C(=O)Nc4ccncn4)n3n2)C1 [Compound 973, (S)-6-(3-methoxypyrrolidin-1-yl)-N-(pyrimidin-4-yl)imidazo[1,2-b]pyridazine-3-carboxamide] | < 350 | – | – |
| Cc1nc2ccc(N3CCC(F)(F)C3)nn2c1C(=O)Nc1cncc(F)c1 [Compound 991] | < 350 | – | – |

| SMILES | Emax [1] [%] | Emax [2] [%] | Trp EC1.5 (μM) (Trp assay) |
| --- | --- | --- | --- |
| Cc1cncc(NC(=O)c2c(C)nc3c(OC[C@H](O)CO)cc(-c4ccccc4C(F)(F)F)nn23)c1 [Compound 864] | ≥ 350 | – | A (EC1.5<1 μM) |
| CO[C@H]1CCN(c2ccc3ncc(C(=O)Nc4cccnc4)n3n2)C1 [Compound 934] | < 350 | – | B (EC1.5 1-25 μM) |
| O=C(Nc1cccnc1)c1cnc2ccc(N3CCCC3)nn12 [Compound 896] | < 350 | – | B (EC1.5 1-25 μM) |
| O=C(Nc1cccnn1)c1cnc2ccc(N3CCCC3C(F)(F)F)nn12 (stereo not drawn) [Compound 968] | ≥ 350 | – | – |
| Cc1nc2ccc(N3CCCC(F)(F)C3)nn2c1C(=O)Nc1cccnn1 [Compound 994] | ≥ 350 | – | – |
| Cc1cncc(NC(=O)c2cnc3ccc(N4CCCC(C(F)(F)F)C4)nn23)c1 (stereo not drawn) [Compound 901] | ≥ 350 | – | A (EC1.5<1 μM) |
| O=C(Nc1ccncn1)c1cnc2ccc(N3CC[C@H](F)C3)nn12 [Compound 851] | < 350 | – | B (EC1.5 1-25 μM) |
| Cc1nc(NC(=O)c2cnn3ccc(N4CCCCC4C(F)(F)F)nc23)sc1C (stereo not drawn) [Compound 965] | ≥ 350 | – | – |
| Cc1nc2ccc(N3CC[C@H](F)C3)nn2c1C(=O)Nc1cccnn1 [Compound 857] | ≥ 350 | – | A (EC1.5<1 μM) |
| CC1CCN(c2ccc3ncc(C(=O)Nc4ccncn4)n3n2)C1 (stereo not drawn) [Compound 992] | < 350 | – | – |
| O=C(Nc1cncc(F)c1)c1cnc2ccc(N3CCCC(C(F)(F)F)C3)nn12 (stereo not drawn) [Compound 910] | ≥ 350 | – | A (EC1.5<1 μM) |
| CC1CCN(c2ccc3ncc(C(=O)Nc4ccc(F)cn4)n3n2)C1 (stereo not drawn) [Compound 977] | < 350 | – | – |
| Cc1nc2c(OC[C@H](O)CO)cc(-c3ccccc3C(F)(F)F)nn2c1C(=O)Nc1ccncc1 [Compound 863] | ≥ 350 | – | A (EC1.5<1 μM) |
| Cc1nc2ccc(N3CCC(C(F)(F)F)C3)nn2c1C(=O)Nc1cccnn1 (stereo not drawn) [Compound 998] | ≥ 350 | – | – |
| Cc1cccc(NC(=O)c2c(C)nc3c(OC[C@H](O)CO)cc(-c4ccccc4C(F)(F)F)nn23)n1 [Compound 849] | ≥ 350 | – | A (EC1.5<1 μM) |
| Cc1nc2ccc(N3CC[C@H](F)C3)nn2c1C(=O)Nc1cccnc1 [Compound 841] | ≥ 350 | – | A (EC1.5<1 μM) |
| O=C(Nc1ccc(F)cn1)c1cnc2ccc(N3CC[C@H](O)C3)nn12 [Compound 983] | < 350 | – | – |
| CN(C)[C@H]1CCN(c2ccc3ncc(C(=O)Nc4ccccn4)n3n2)C1 [Compound 866] | ≥ 350 | – | B (EC1.5 1-25 μM) |
| O=C(Nc1ccncn1)c1cnc2ccc(N3CC(F)(F)C3)nn12 [Compound 921] | < 350 | – | C (EC1.5>25 μM) |
| CN1CCN(c2ccc3ncc(C(=O)Nc4ccncc4F)n3n2)CC1 [Compound 949] | < 350 | – | – |

— patent US9957271B2, “Substituted bicyclic aza-heterocycles and analogues as sirtuin modulators” (GlaxoSmithKline, LLC, priority 2012, dated 2018)
